The assay deals with T1, human Cereblon WT GST-tagged protein (Homo sapiens, UniProt Q96SW2).
T1 construct: purchased CISBIO 64BDCRBNPEH
The assay is described as follows: CRBN binding, HTRF (CEREBLON BINDING kit). The note with it: HTRF; for inhibition at 0.5 µM / inhibition at 2 µM: Table II-2, CRBN binding screening; for inhibition at 0.5 µM: read-out: Inhibition rate (%) at 0.5µM; for inhibition at 2 µM: read-out: Inhibition rate (%) at 2 µM; for IC50: Table II-1, CRBN binding. As for the experimental part:
The CEREBLON BINDING kits (specification: 10,000 tests; product number: Catalog # 64BDCRBNPEH; CISBIO company) was used to determine the CRBN binding ability of the compounds to be tested through a HTRF method (homogeneous time-resolved fluorescence). The specific methods are as follows: • 1. […] Then, 2.5 µL of human Cereblon WT GST-tagged protein solution was added to each well. Finally, 5 µL of the thoroughly mixed Thalidomide-Re reagent and GST Eu antibody working solution were added to each of the aforementioned wells. […] The blank control wells were sequentially added with 2.5 µL of diluent #9 (1X) solution, 2.5 µL of binding buffer, and 5 µL of thoroughly mixed Thalidomide-Re reagent and GST Eu antibody working solution. • 4. After sealing and incubating the solutions in the aforementioned wells at room temperature for 3 hours, the […] at emission wavelengths of 620 nm and 665 nm were detected by the HTRF method using a Spark microplate reader (V3.1 SP1).
On the technique in general: Time-resolved FRET reads energy transfer from a long-lived donor to a nearby acceptor.

T1 sequence (Q96SW2 whole entry): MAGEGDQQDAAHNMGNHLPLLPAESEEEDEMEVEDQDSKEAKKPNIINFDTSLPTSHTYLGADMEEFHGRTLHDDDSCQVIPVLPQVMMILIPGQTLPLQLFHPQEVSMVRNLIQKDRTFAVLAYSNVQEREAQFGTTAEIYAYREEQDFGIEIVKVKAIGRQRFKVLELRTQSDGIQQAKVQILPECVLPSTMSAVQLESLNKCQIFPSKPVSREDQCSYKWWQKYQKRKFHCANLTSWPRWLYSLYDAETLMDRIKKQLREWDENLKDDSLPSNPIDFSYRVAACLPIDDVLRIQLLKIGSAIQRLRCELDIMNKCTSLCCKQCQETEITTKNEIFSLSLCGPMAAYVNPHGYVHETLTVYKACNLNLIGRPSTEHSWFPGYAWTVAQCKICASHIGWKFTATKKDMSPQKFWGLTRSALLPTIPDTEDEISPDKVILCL

`Cc1ccc(C(=O)Nc2ccc(N3CCC(N(C)Cc4ccc(C5CCC(=O)NC5=O)cc4)CC3)c(C(F)(F)F)c2)cc1C#Cc1cnc2cccnn12` (stereo not drawn) [GT-04106, N-(4-(4-((4-(2,6-dioxopiperidin-3-yl)benzyl)(methyl)amino)piperidin-1-yl)-3-(trifluoromethyl)phenyl)-3-(imidazo[1,2-b]pyridazin-3-ylethynyl)-4-methylbenzamide]: the inhibition at 0.5 µM was in the range of 40 to 53% and the inhibition at 2 µM fell in the range of 60 to 80%.

Turning to `Cc1ccc(C(=O)Nc2ccc(N3CCC(N(C)Cc4ccc(C5CCC(=O)NC5=O)c(F)c4)CC3)c(C(F)(F)F)c2)cc1C#Cc1cnc2cccnn12` (stereo not drawn) [GT-04107, N-(4-(4-((4-(2,6-dioxopiperidin-3-yl)-3-fluorobenzyl)(methyl)amino)piperidin-1-yl)-3-(trifluoromethyl)phenyl)-3-(imidazo[1,2-b]pyridazin-3-ylethynyl)-4-methylbenzamide], the inhibition at 0.5 µM fell in the range of 30 to 40% and the inhibition at 2 µM was 80 to 100%.

On to `Cn1cc(-c2cc(S(C)(=O)=O)ccc2OCc2ccc(C3CCC(=O)NC3=O)c(F)c2)c2cc[nH]c2c1=O` (stereo not drawn) [GT-04640, 3-(2-fluoro-4-((2-(6-methyl-7-oxo-6,7-dihydro-1H-pyrrolo[2,3-c]pyridin-4-yl)-4-(methylsulfonyl)phenoxy)methyl)phenyl)piperidine-2,6-dione], for which the inhibition at 0.5 µM fell in the range of 60 to 80% and the inhibition at 2 µM lay in the range of 80 to 100%.

`Cn1cc(-c2cc(S(C)(=O)=O)ccc2OCc2ccc(N3CCC(=O)NC3=O)c(F)c2)c2cc[nH]c2c1=O` [GT-04643, 1-(2-fluoro-4-((2-(6-methyl-7-oxo-6,7-dihydro-1H-pyrrolo[2,3-c]pyridin-4-yl)-4-(methylsulfonyl)phenoxy)methyl)phenyl)dihydropyrimidine-2,4(1H,3H)-dione]: the inhibition at 0.5 µM is 30 to 40% and the inhibition at 2 µM was 60 to 80%.

`Cn1cc(-c2cc(S(C)(=O)=O)ccc2OCc2ccc(N3CCC(=O)NC3=O)cc2)c2cc[nH]c2c1=O` [GT-04645, 1-(4-((2-(6-methyl-7-oxo-6,7-dihydro-1H-pyrrolo[2,3-c]pyridin-4-yl)-4-(methylsulfonyl)phenoxy)methyl)phenyl)dihydropyrimidine-2,4(1H,3H)-dione]: the inhibition at 0.5 µM lay in the range of 20 to 30% and the inhibition at 2 µM was in the range of 53 to 60%.

In turn, `O=C1CCN(c2cccc(CN3CCN(C4CCN(c5ccc([C@@H]6c7ccc(O)cc7CC[C@@H]6c6ccccc6)cc5)CC4)CC3)c2)C(=O)N1` [GT-04685, 1-(3-((4-(1-(4-((1R,2S)-6-hydroxy-2-phenyl-1,2,3,4-tetrahydronaphthalen-1-yl)phenyl)piperidin-4-yl)piperazin-1-yl)methyl)phenyl)dihydropyr imidine-2,4(1H,3H)-dione] registered a 50% inhibitory concentration (IC50) of 500 to 1000 nM.

Take `O=C1CCN(c2ccc(CN3CCN(C4CCN(c5ccc([C@@H]6c7ccc(O)cc7CC[C@@H]6c6ccccc6)cc5)CC4)CC3)cc2)C(=O)N1` [GT-04686, 1-(4-((4-(1-(4-((1R,2S)-6-hydroxy-2-phenyl-1,2,3,4-tetrahydronaphthalen-1-yl)phenyl)piperidin-4-yl)piperazin-1-yl)methyl)phenyl)dihydropyr imidine-2,4(1H,3H)-dione]: the concentration for half-maximal inhibition (IC50) is 1000 to 1900 nM.

Consider `O=C1CCN(c2ccc(CN3CCN(C4CCN(c5ccc([C@@H]6c7ccc(O)cc7CC[C@@H]6c6ccccc6)cc5)CC4)CC3)c(F)c2)C(=O)N1` [GT-04687, 1-(3-fluoro-4-((4-(1-(4-((1R,2S)-6-hydroxy-2-phenyl-1,2,3,4-tetrahydronaphthalen-1-yl)phenyl)piperidin-4-yl)piperazin-1-yl)methyl)phenyl)dihydropyr imidine-2,4(1H,3H)-dione], for which the 50% inhibitory concentration (IC50) lay in the range of 1000 to 1900 nM.

For the molecule `O=C1CCN(c2ccc(CN3CCN(C4CCN(c5ccc([C@@H]6c7ccc(O)cc7CC[C@@H]6c6ccccc6)cc5)CC4)CC3)cc2F)C(=O)N1` [GT-04738, 1-(2-fluoro-4-((4-(1-(4-((1R,2S)-6-hydroxy-2-phenyl-1,2,3,4-tetrahydronaphthalen-1-yl)phenyl)piperidin-4-yl)piperazin-1-yl)methyl)phenyl)dihydropyr imidine-2,4(1H,3H)-dione], the half-maximal inhibitory concentration (IC50) lay in the range of 1000 to 1900 nM.

Take `O=C1CCN(c2ccc(CCl)nc2)C(=O)N1` [GT-06984, 1-(6-(Chloromethyl)pyridin-3-yl)dihydropyrimidine-2,4(1H,3H)-dione]: the inhibition at 0.5 µM fell in the range of 30 to 40% and the inhibition at 2 µM is 60 to 80%.

For the molecule `CN(c1nccnc1CNc1nc(Nc2ccc(N3CCN(Cc4cc(C5CCC(=O)NC5=O)cnc4F)CC3)cc2)ncc1C(F)(F)F)S(C)(=O)=O` (stereo not drawn) [GT-07397, N-(3-(((2-((4-(4-((5-(2,6-dioxopiperidin-3-yl)-2-fluoropyridin-3-yl)methyl)piperazin-1-yl)phenyl)amino)-5-(trifluoromethyl)pyrimidin-4-yl)amino)methyl)pyrazin-2-yl)-N-methylmethanesulfonamide], the inhibition at 0.5 µM lay within 30 to 40% and the inhibition at 2 µM was in the range of 60 to 80%.

Regarding `CN(c1nccnc1CNc1nc(Nc2ccc(N3CCN(Cc4ccc(C5CCC(=O)NC5=O)cc4)CC3)cc2)ncc1C(F)(F)F)S(C)(=O)=O` (stereo not drawn) [GT-07399, N-(3-(((2-((4-(4-(4-(2,6-dioxopiperidin-3-yl)benzyl)piperazin-1-yl)phenyl)amino)-5-(trifluoromethyl)pyrimidin-4-yl)amino)methyl)pyrazin-2-yl)-N-methylmethanesulfonamide], the inhibition at 0.5 µM fell in the range of 10 to 20% and the inhibition at 2 µM fell in the range of 60 to 80%.

For the molecule `CN(c1nccnc1CNc1nc(Nc2ccc(N3CCN(Cc4ccc(N5CCC(=O)NC5=O)cn4)CC3)cc2)ncc1C(F)(F)F)S(C)(=O)=O` [GT-07403, N-(3-(((2-((4-(4-((5-(2,4-dioxotetrahydropyrimidin-1(2H)-yl)pyridin-2-yl)methyl)piperazin-1-yl)phenyl)amino)-5-(trifluoromethyl)pyrimidin-4-yl)amino)methyl)pyrazin-2-yl)-N-methylmethanesulfonamide], the inhibition at 0.5 µM lay within 30 to 40% and the inhibition at 2 µM was 60 to 80%.

Turning to `CC(=O)c1c(C)c2cnc(Nc3ccc(N4CCN(Cc5cncc(N6CCC(=O)NC6=O)c5)CC4)cn3)nc2n(C2CCCC2)c1=O` [GT-07482, 1-(5-((4-(6-((6-acetyl-8-cyclopentyl-5-methyl-7-oxo-7,8-dihydropyrido[2,3-d]pyrimidin-2-yl)amino)pyridin-3-yl)piperazin-1-yl)methyl)pyridin-3-yl)dihydropyrimidine-2,4(1H,3H)-dione], the inhibition at 0.5 µM was 20 to 30% and the inhibition at 2 µM lay within 80 to 100%.

Take `CC(=O)c1c(C)c2cnc(Nc3ccc(N4CCN(Cc5ccc(C6CCC(=O)NC6=O)cn5)CC4)cn3)nc2n(C2CCCC2)c1=O` (stereo not drawn) [GT-07483, 3-(6-((4-(6-((6-acetyl-8-cyclopentyl-5-methyl-7-oxo-7,8-dihydropyrido[2,3-d]pyrimidin-2-yl)amino)pyridin-3-yl)piperazin-1-yl)methyl)pyridin-3-yl)piperidine-2,6-dione]: the inhibition at 0.5 µM fell in the range of 53 to 60% and the inhibition at 2 µM lay within 80 to 100%.

As to `CC(=O)c1c(C)c2cnc(Nc3ccc(N4CCN(Cc5cncc(C6CCC(=O)NC6=O)c5)CC4)cn3)nc2n(C2CCCC2)c1=O` (stereo not drawn) [GT-07485, 3-(5-((4-(6-((6-acetyl-8-cyclopentyl-5-methyl-7-oxo-7,8-dihydropyrido[2,3-d]pyrimidin-2-yl)amino)pyridin-3-yl)piperazin-1-yl)methyl)pyridin-3-yl)piperidine-2,6-dione], the inhibition at 0.5 µM was in the range of 53 to 60% and the inhibition at 2 µM is 80 to 100%.

With `COc1cc2nn(C3CCN(Cc4ccc(C5CCC(=O)NC5=O)cn4)CC3)cc2cc1NC(=O)c1cccc(C(F)(F)F)n1` (stereo not drawn) [GT-07534, N-(2-(1-((5-(2,6-dioxopiperidin-3-yl)pyridin-2-yl)methyl)piperidin-4-yl)-6-methoxy-2H-indazol-5-yl)-6-(trifluoromethyl)picolinamide], the inhibition at 0.5 µM is 10 to 20% and the inhibition at 2 µM lay in the range of 53 to 60%.

Consider `COc1cc2nn(C3CCN(Cc4cncc(C5CCC(=O)NC5=O)c4)CC3)cc2cc1NC(=O)c1cccc(C(F)(F)F)n1` (stereo not drawn) [GT-07536, N-(2-(1-((5-(2,6-dioxopiperidin-3-yl)pyridin-3-yl)methyl)piperidin-4-yl)-6-methoxy-2H-indazol-5-yl)-6-(trifluoromethyl)picolinamide], for which the inhibition at 0.5 µM lay in the range of 10 to 20% and the inhibition at 2 µM lay in the range of 53 to 60%.

`CC(C)(O)c1cc2nn(C3CCN(Cc4cncc(N5CCC(=O)NC5=O)c4)CC3)cc2cc1NC(=O)c1cccc(C(F)(F)F)n1` [GT-07540, N-(2-(1-((5-(2,4-dioxotetrahydropyrimidin-1(2H)-yl)pyridin-3-yl)methyl)piperidin-4-yl)-6-(2-hydroxypropan-2-yl)-2H-indazol-5-yl)-6-(trifluoromethyl)picolinamide]: the inhibition at 0.5 µM lay in the range of 30 to 40% and the inhibition at 2 µM was in the range of 53 to 60%.

With `CC(C)(O)c1cc2nn(C3CCN(Cc4ccc(C5CCC(=O)NC5=O)cn4)CC3)cc2cc1NC(=O)c1cccc(C(F)(F)F)n1` (stereo not drawn) [GT-07541, N-(2-(1-((5-(2,6-dioxopiperidin-3-yl)pyridin-2-yl)methyl)piperidin-4-yl)-6-(2-hydroxypropan-2-yl)-2H-indazol-5-yl)-6-(trifluoromethyl)picolinamide], the inhibition at 0.5 µM fell in the range of 40 to 53% and the inhibition at 2 µM fell in the range of 60 to 80%.

As a reminder, the inhibition is how much of the control response was suppressed. Usually IC50 stands for the concentration that gives 50% inhibition. Read a low IC50 as greater potency.

The record behind these values is patent EP4678638A1, “NEW E3 UBIQUITIN LIGASE LIGAND, PROTEIN DEGRADATION AGENT AND USE THEREOF” (priority 2023, dated 2024).
